# According to ChEMBL document CHEMBL1127517 (J Med Chem, 1994):
# Key:
# Rattus norvegicus [1] = assay: Distribution of radio activity in tissues of unfasted male rats was measured as regional uptake at 2 min of time in cerebellum after intravenous administration; assay type: ADME, organism-based; settings: in vivo
# Rattus norvegicus [2] = assay: Distribution of radio activity in tissues of unfasted male rats was measured at 30 min of time in skin after intravenous administration; assay type: ADME, organism-based; settings: in vivo, 0.5 h
# Rattus norvegicus [3] = assay: Distribution of radio activity in tissues of unfasted male rats was measured at 2 min of time in thyroid after intravenous administration; assay type: ADME, organism-based, Thyroid gland; settings: in vivo
# Rattus norvegicus [4] = assay: Distribution of radio activity in tissues of unfasted male rats was measured at 2 min of time in brain after intravenous administration; assay type: ADME, organism-based; settings: in vivo
# Rattus norvegicus [5] = assay: Distribution of radio activity in tissues of unfasted male rats was measured at 120 min of time in brain after intravenous administration; assay type: ADME, organism-based; settings: in vivo, 2 h
# Rattus norvegicus [6] = assay: Distribution of radio activity in tissues of unfasted male rats was measured at 60 min of time in spleen after intravenous administration; assay type: ADME, organism-based; settings: in vivo, 1 h
# Rattus norvegicus [7] = assay: Distribution of radio activity in tissues of unfasted male rats was measured at 2 min of time in blood after intravenous administration; assay type: ADME, organism-based; settings: in vivo
# Rattus norvegicus [8] = assay: Distribution of radio activity in tissues of unfasted male rats was measured at 120 min of time in muscle after intravenous administration; assay type: ADME, organism-based, Muscle tissue; settings: in vivo, 2 h
# Rattus norvegicus [9] = assay: Distribution of radio activity in tissues of unfasted male rats was measured as regional uptake at 2 min of time in striatum after intravenous administration; assay type: ADME, organism-based; settings: in vivo
# Rattus norvegicus [10] = assay: Distribution of radio activity in tissues of unfasted male rats was measured at 30 min of time in muscle after intravenous administration; assay type: ADME, organism-based, Muscle tissue; settings: in vivo, 0.5 h
# Rattus norvegicus [11] = assay: Distribution of radio activity in tissues of unfasted male rats was measured at 60 min of time in blood after intravenous administration; assay type: ADME, organism-based; settings: in vivo, 1 h
# Rattus norvegicus [12] = assay: Distribution of radio activity in tissues of unfasted male rats was measured at 30 min of time in heart after intravenous administration; assay type: ADME, organism-based; settings: in vivo, 0.5 h
# Rattus norvegicus [13] = assay: Distribution of radio activity in tissues of unfasted male rats was measured as regional uptake at 2 min of time in ST/CB after intravenous administration; assay type: ADME, organism-based; settings: in vivo
# Rattus norvegicus [14] = assay: Distribution of radio activity in tissues of unfasted male rats was measured as regional uptake at 60 min of time in cerebellum after intravenous administration; assay type: ADME, organism-based; settings: in vivo, 1 h
# [15] = target: T1, Sodium-dependent dopamine transporter (Rattus norvegicus, UniProt P23977); assay: Inhibitory constant towards reuptake of [125I]-13 from dopamine transporter in rat striatal membranes; assay type: cell membranes, Membrane
# T1 sequence (P23977 whole entry): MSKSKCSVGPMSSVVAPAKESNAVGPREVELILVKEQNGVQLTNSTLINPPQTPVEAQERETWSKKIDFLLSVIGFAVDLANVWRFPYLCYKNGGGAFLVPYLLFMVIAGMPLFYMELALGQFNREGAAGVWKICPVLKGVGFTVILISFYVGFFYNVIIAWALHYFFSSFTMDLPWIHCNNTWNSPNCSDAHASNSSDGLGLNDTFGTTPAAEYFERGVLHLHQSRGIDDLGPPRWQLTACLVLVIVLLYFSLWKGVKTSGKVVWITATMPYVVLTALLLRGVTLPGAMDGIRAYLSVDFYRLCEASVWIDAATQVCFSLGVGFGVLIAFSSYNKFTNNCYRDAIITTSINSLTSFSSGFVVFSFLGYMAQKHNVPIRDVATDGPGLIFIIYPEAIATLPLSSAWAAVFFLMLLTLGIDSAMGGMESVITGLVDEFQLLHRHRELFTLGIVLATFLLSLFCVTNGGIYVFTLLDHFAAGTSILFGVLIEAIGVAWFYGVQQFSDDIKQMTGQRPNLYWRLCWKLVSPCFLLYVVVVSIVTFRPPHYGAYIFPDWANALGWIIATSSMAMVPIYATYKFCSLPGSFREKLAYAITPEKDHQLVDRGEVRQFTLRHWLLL
# Rattus norvegicus [16] = assay: Distribution of radio activity in tissues of unfasted male rats was measured at 60 min of time in muscle after intravenous administration; assay type: ADME, organism-based, Muscle tissue; settings: in vivo, 1 h
# [17] = target: T1, Sodium-dependent dopamine transporter; assay: Inhibitory constant towards reuptake of [125I]-12 from dopamine transporter in rat striatal membranes; assay type: cell membranes, Membrane
# Rattus norvegicus [18] = assay: Distribution of radio activity in tissues of unfasted male rats was measured as regional uptake at 120 min of time in cerebellum after intravenous administration; assay type: ADME, organism-based; settings: in vivo, 2 h
# Rattus norvegicus [19] = assay: Distribution of radio activity in tissues of unfasted male rats was measured at 120 min of time in skin after intravenous administration; assay type: ADME, organism-based; settings: in vivo, 2 h
# Rattus norvegicus [20] = assay: Distribution of radio activity in tissues of unfasted male rats was measured at 30 min of time in lung after intravenous administration; assay type: ADME, organism-based; settings: in vivo, 0.5 h
# Rattus norvegicus [21] = assay: Distribution of radio activity in tissues of unfasted male rats was measured as regional uptake at 2 min of time in cortex after intravenous administration; assay type: ADME, organism-based; settings: in vivo
# Rattus norvegicus [22] = assay: Distribution of radio activity in tissues of unfasted male rats was measured as regional uptake at 60 min of time in striatum after intravenous administration; assay type: ADME, organism-based; settings: in vivo, 1 h
# Rattus norvegicus [23] = assay: Distribution of radio activity in tissues of unfasted male rats was measured at 120 min of time in thyroid after intravenous administration; assay type: ADME, organism-based, Thyroid gland; settings: in vivo, 2 h
# Rattus norvegicus [24] = assay: Distribution of radio activity in tissues of unfasted male rats was measured at 120 min of time in heart after intravenous administration; assay type: ADME, organism-based; settings: in vivo, 2 h
# Rattus norvegicus [25] = assay: Distribution of radio activity in tissues of unfasted male rats was measured at 30 min of time in liver after intravenous administration; assay type: ADME, organism-based; settings: in vivo, 0.5 h
# Rattus norvegicus [26] = assay: Distribution of radio activity in tissues of unfasted male rats was measured at 2 min of time in heart after intravenous administration; assay type: ADME, organism-based; settings: in vivo
# Rattus norvegicus [27] = assay: Distribution of radio activity in tissues of unfasted male rats was measured at 60 min of time in liver after intravenous administration; assay type: ADME, organism-based; settings: in vivo, 1 h
# Rattus norvegicus [28] = assay: Distribution of radio activity in tissues of unfasted male rats was measured at 2 min of time in muscle after intravenous administration; assay type: ADME, organism-based, Muscle tissue; settings: in vivo
# Rattus norvegicus [29] = assay: Distribution of radio activity in tissues of unfasted male rats was measured as regional uptake at 120 min of time in cortex after intravenous administration; assay type: ADME, organism-based; settings: in vivo, 2 h
# Rattus norvegicus [30] = assay: Distribution of radio activity in tissues of unfasted male rats was measured at 60 min of time in skin after intravenous administration; assay type: ADME, organism-based; settings: in vivo, 1 h
# Rattus norvegicus [31] = assay: Distribution of radio activity in tissues of unfasted male rats was measured as regional uptake at 120 min of time in hippocampus after intravenous administration; assay type: ADME, organism-based; settings: in vivo, 2 h
# Rattus norvegicus [32] = assay: Distribution of radio activity in tissues of unfasted male rats was measured as regional uptake at 2 min of time in hippocampus after intravenous administration; assay type: ADME, organism-based; settings: in vivo
# Rattus norvegicus [33] = assay: Distribution of radio activity in tissues of unfasted male rats was measured as regional uptake at 30 min of time in hippocampus after intravenous administration; assay type: ADME, organism-based; settings: in vivo, 0.5 h
# Rattus norvegicus [34] = assay: Distribution of radio activity in tissues of unfasted male rats was measured at 30 min of time in blood after intravenous administration; assay type: ADME, organism-based; settings: in vivo, 0.5 h
# Rattus norvegicus [35] = assay: Distribution of radio activity in tissues of unfasted male rats was measured at 30 min of time in spleen after intravenous administration; assay type: ADME, organism-based; settings: in vivo, 0.5 h
# Rattus norvegicus [36] = assay: Distribution of radio activity in tissues of unfasted male rats was measured at 30 min of time in brain after intravenous administration; assay type: ADME, organism-based; settings: in vivo, 0.5 h
# Rattus norvegicus [37] = assay: Distribution of radio activity in tissues of unfasted male rats was measured as regional uptake at 60 min of time in ST/CB after intravenous administration; assay type: ADME, organism-based; settings: in vivo, 1 h
# Rattus norvegicus [38] = assay: Distribution of radio activity in tissues of unfasted male rats was measured as regional uptake at 30 min of time in cortex after intravenous administration; assay type: ADME, organism-based; settings: in vivo, 0.5 h
# Rattus norvegicus [39] = assay: Distribution of radio activity in tissues of unfasted male rats was measured at 120 min of time in spleen after intravenous administration; assay type: ADME, organism-based; settings: in vivo, 2 h
# Rattus norvegicus [40] = assay: Distribution of radio activity in tissues of unfasted male rats was measured at 60 min of time in thyroid after intravenous administration; assay type: ADME, organism-based, Thyroid gland; settings: in vivo, 1 h
# Rattus norvegicus [41] = assay: Distribution of radio activity in tissues of unfasted male rats was measured at 2 min of time in liver after intravenous administration; assay type: ADME, organism-based; settings: in vivo
# Rattus norvegicus [42] = assay: Distribution of radio activity in tissues of unfasted male rats was measured as regional uptake at 60 min of time in cortex after intravenous administration; assay type: ADME, organism-based; settings: in vivo, 1 h
# Rattus norvegicus [43] = assay: Distribution of radio activity in tissues of unfasted male rats was measured at 120 min of time in liver after intravenous administration; assay type: ADME, organism-based; settings: in vivo, 2 h
# Rattus norvegicus [44] = assay: Distribution of radio activity in tissues of unfasted male rats was measured at 120 min of time in kidney after intravenous administration; assay type: ADME, organism-based; settings: in vivo, 2 h
# Rattus norvegicus [45] = assay: Distribution of radio activity in tissues of unfasted male rats was measured at 60 min of time in heart after intravenous administration; assay type: ADME, organism-based; settings: in vivo, 1 h
# Rattus norvegicus [46] = assay: Distribution of radio activity in tissues of unfasted male rats was measured at 60 min of time in kidney after intravenous administration; assay type: ADME, organism-based; settings: in vivo, 1 h
# Rattus norvegicus [47] = assay: Distribution of radio activity in tissues of unfasted male rats was measured as regional uptake at 120 min of time in striatum after intravenous administration; assay type: ADME, organism-based; settings: in vivo, 2 h
smiles,measurement,setting,value
COC(=O)C1C(c2ccc(Cl)cc2)CC2CCC1N2C/C=C\I (centres undefined),Dose/g,Rattus norvegicus [1],0.82%
same,Injected dose/organ,Rattus norvegicus [2],26.73%
same,Injected dose/organ,Rattus norvegicus [3],0.08%
same,Injected dose/organ,Rattus norvegicus [4],1.27%
same,Injected dose/organ,Rattus norvegicus [5],0.04%
same,Injected dose/organ,Rattus norvegicus [6],0.11%
same,Injected dose/organ,Rattus norvegicus [7],5.01%
same,Injected dose/organ,Rattus norvegicus [8],9.22%
same,Dose/g,Rattus norvegicus [9],0.92%
same,Injected dose/organ,Rattus norvegicus [10],17.43%
same,Injected dose/organ,Rattus norvegicus [11],5.77%
same,Injected dose/organ,Rattus norvegicus [12],0.22%
same,Dose/g,Rattus norvegicus [13],1.12%
same,Dose/g,Rattus norvegicus [14],0.04%
same,Ki,[15],6.3 nM
same,Injected dose/organ,Rattus norvegicus [16],12.22%
same,Ki,[17],1.27 nM
same,Dose/g,Rattus norvegicus [18],0.02%
same,Injected dose/organ,Rattus norvegicus [19],19.3%
same,Injected dose/organ,Rattus norvegicus [20],0.78%
same,Dose/g,Rattus norvegicus [21],0.91%
same,Dose/g,Rattus norvegicus [22],0.11%
same,Injected dose/organ,Rattus norvegicus [23],1.29%
same,Injected dose/organ,Rattus norvegicus [24],0.11%
same,Injected dose/organ,Rattus norvegicus [25],2.78%
same,Injected dose/organ,Rattus norvegicus [26],0.85%
same,Injected dose/organ,Rattus norvegicus [27],1.6%
same,Injected dose/organ,Rattus norvegicus [28],29.15%
same,Dose/g,Rattus norvegicus [29],0.03%
same,Injected dose/organ,Rattus norvegicus [30],24.81%
same,Dose/g,Rattus norvegicus [31],0.03%
same,Dose/g,Rattus norvegicus [32],0.69%
same,Dose/g,Rattus norvegicus [33],0.12%
same,Injected dose/organ,Rattus norvegicus [34],8%
same,Injected dose/organ,Rattus norvegicus [35],0.19%
same,Injected dose/organ,Rattus norvegicus [36],0.21%
same,Dose/g,Rattus norvegicus [37],2.7%
same,Dose/g,Rattus norvegicus [38],0.11%
same,Injected dose/organ,Rattus norvegicus [39],0.09%
same,Injected dose/organ,Rattus norvegicus [40],0.94%
same,Injected dose/organ,Rattus norvegicus [41],12.13%
same,Dose/g,Rattus norvegicus [42],0.04%
same,Injected dose/organ,Rattus norvegicus [43],1.28%
same,Injected dose/organ,Rattus norvegicus [44],0.46%
same,Injected dose/organ,Rattus norvegicus [45],0.16%
same,Injected dose/organ,Rattus norvegicus [46],0.56%
same,Dose/g,Rattus norvegicus [47],0.05%
COC(=O)C1C(c2ccc(Cl)cc2)CC2CCC1N2C/C=C/I (centres undefined),Dose/g,Rattus norvegicus [1],0.97%
same,Injected dose/organ,Rattus norvegicus [2],23.76%
same,Injected dose/organ,Rattus norvegicus [3],0.06%
same,Injected dose/organ,Rattus norvegicus [4],1.62%
same,Injected dose/organ,Rattus norvegicus [5],0.13%
same,Injected dose/organ,Rattus norvegicus [6],0.12%
same,Injected dose/organ,Rattus norvegicus [7],2.98%
same,Injected dose/organ,Rattus norvegicus [8],9.04%
same,Dose/g,Rattus norvegicus [9],1.15%
same,Injected dose/organ,Rattus norvegicus [10],18.54%
same,Injected dose/organ,Rattus norvegicus [11],5.24%
same,Injected dose/organ,Rattus norvegicus [12],0.29%
same,Dose/g,Rattus norvegicus [13],1.18%
same,Dose/g,Rattus norvegicus [14],0.077%
same,Ki,[15],3.2 nM
same,Injected dose/organ,Rattus norvegicus [16],12.14%
same,Ki,[17],0.69 nM
same,Dose/g,Rattus norvegicus [18],0.037%
same,Injected dose/organ,Rattus norvegicus [19],20%
same,Injected dose/organ,Rattus norvegicus [20],0.91%
same,Dose/g,Rattus norvegicus [21],1.15%
same,Dose/g,Rattus norvegicus [22],1.23%
same,Injected dose/organ,Rattus norvegicus [23],1.06%
same,Injected dose/organ,Rattus norvegicus [24],0.11%
same,Injected dose/organ,Rattus norvegicus [25],3.72%
same,Injected dose/organ,Rattus norvegicus [26],1.05%
same,Injected dose/organ,Rattus norvegicus [27],1.97%
same,Injected dose/organ,Rattus norvegicus [28],28.27%
same,Dose/g,Rattus norvegicus [29],0.05%
same,Injected dose/organ,Rattus norvegicus [30],23.9%
same,Dose/g,Rattus norvegicus [31],0.038%
same,Dose/g,Rattus norvegicus [32],0.84%
same,Dose/g,Rattus norvegicus [33],0.26%
same,Injected dose/organ,Rattus norvegicus [34],7.12%
same,Injected dose/organ,Rattus norvegicus [35],0.23%
same,Injected dose/organ,Rattus norvegicus [36],0.58%
same,Dose/g,Rattus norvegicus [37],15.9%
same,Dose/g,Rattus norvegicus [38],0.22%
same,Injected dose/organ,Rattus norvegicus [39],0.09%
same,Injected dose/organ,Rattus norvegicus [40],0.97%
same,Injected dose/organ,Rattus norvegicus [41],11.77%
same,Dose/g,Rattus norvegicus [42],0.08%
same,Injected dose/organ,Rattus norvegicus [43],1.44%
same,Injected dose/organ,Rattus norvegicus [44],0.46%
same,Injected dose/organ,Rattus norvegicus [45],0.19%
same,Injected dose/organ,Rattus norvegicus [46],0.58%
same,Dose/g,Rattus norvegicus [47],0.61%
